Results as given in patent US5929074A, “Pyridazinone derivatives with pharmaceutical activity” (Nissan Chemical Industries, Ltd., priority 1993, dated 1999).

Key:
guinea-pig trachea [1] = test: Bronchodilating effect in vitro, Method 1-2: relaxation of guinea-pig trachea strips (no LTD4 contraction); type: cell-based; details: Cavia porcellus; Method 1-2; trachea conditioned with 1 μM isoproterenol, no LTD4; DMSO 0.2 v/v%; read-out: EC50 (concentration to achieve 50% relaxation relative to relaxation by 1 mM aminophylline)
Experimental: (§1) A test sample drug was dissolved in 100% dimethylsulfoxide (DMSO, Wako Junyaku) and diluted for use. Leukotriene D4 (LTD4, Ultrafine) and isoproterenol (Isoproterenol, Sigma) were diluted with distilled water. Indomethacin (Indo, Sigma) was dissolved in 100% ethanol (EtOH, Komune Kagaku). Aminophylline (AP, Sigma), histamine dihydrochloride (His, Wako Junyaku) was dissolved in distilled water. The final concentrations of DMSO and EtOH in a bath were made not higher than 0.25% v/v and not higher than 0.1% v/v, respectively. Method 1:1:
(§2) A guinea-pig of 300-450 g was exsanguinated, and the trachea was taken out. After removing fat and connective tissues, it was cut and divided into 2 to 3 spiral strips, each having a width of about 2 mm and containing 4 smooth muscle tissues. Each specimen thus prepared was suspended in an organ bath of 8 ml containing a modified Tyrode solution aerated with 95% O2 +5% CO2 at 37° C., and a load of 1 g was applied thereto. The relaxation of the muscle was recorded by a pen recorder (Yokogawa Hokushin Electric, type 3066) by means of an isotonic transducer (Nihon Kohden, TD-112S).
The same measuring method as method 1-1 was employed. The specimen was allowed to stand for from 60 to 90 minutes and then relaxed by an addition of 1 μM of isopreterenol. The specimen was washed, and this operation was repeated at an interval of from 30 to 40 minutes until a constant relaxation reaction was reached. Then, a test sample drug was accumulately applied to relax the specimen. Finally, 1 mM of AP was added to achieve the maximum relaxation reaction. The result was expressed by relaxation percent relative to the relaxation by AP which was rated 100%, and a concentration to achieve 50% relaxation (EC50, μM) was obtained. The final concentration of DMSO in the bath was adjusted to be 0.2 v/v%. As a control drug, AP was used.

[2] = test system: anaphylactic bronchoconstriction mediated by endogeneously liberated SRS-A; test: Effect on anaphylactic bronchoconstriction mediated by endogeneously liberated SRS-A in passively sensitized guinea-pig; type: in vivo; details: Cavia porcellus, po, 2 h, 30 mg/kg, orally 2 hours before EA challenge; read-out: Inhibition of broncho-constriction
Experimental: Effect on anaphylactic bronchoconstriction mediated by endogeneously liberated SRS-A in passively sensitized guinea-pig
Male guinea-pigs (350-450 g) were passively sensitized with intravenous (i.v.) injection of 0.125 ml rabbit anti-EA (egg albumin) serum (Capple Laboratories) 1 to 2 days preceding the experiment. Antigen-induced anaphylactic bronchoconstrictions mediated by endogeneously liberated SRS-A were measured by modified method of Konzett and Rossler (Arch. Exp. Path. Pharmak., 195, 71, 1940). Sensitized quinea-pigs were anaesthetized with intraperitoneal injection of urethane (1.5 g/kg). The right jugular vein was cannulated for the administration of the all agents and trachea was cannulated to record total pulmonary resistance. Guinea-pigs were artificially ventilated by a small animal respirator (Shinano, Model SN-480-7) set at a stroke volume of 4.5 ml and a rate of 50 breaths per min. The change in pulmonary resistance was measured with a pressure transducer (Nihon Kohden, Model TP-602T) connected to a T-tube on the tracheal cannula. The percentage of the maximum bronchoconstriction obtained by clamping off the trachea. Following surgical preparation, the animals were pretreated with indomethacin (2 mg/kg, 10 min), pyrilamine (2 mg/kg, 6 min) and propranolol (0.1 mg/kg, 5 min) prior to the EA challenge (0.2 mg/kg). All test compounds were administered orally 2 hours before the EA challenge. Inhibition (%) of broncho-constriction was determined as follows: Inhibition (%)=(1.0-% maximum bronchoconstriction in test/% maximum bronchoconstriction in control)×100. The maximum bronchoconstriction was 62±6% (Mean±S.E.M; n=6) and the number of test animals was 5-6.

platelet = test: Anti-platelet aggregation effect in rabbits (ADP-induced); type: cell-based, rabbit; details: Oryctolagus cuniculus, Platelet, rabbit PRP, ADP 5 to 10 μM, 37° C.; read-out: IC50 (concentration at which aggregation of control sample was 50% inhibited)
Experimental: Anti-platelet aggregation effect in rabbits
Blood was collected from the abdominal artery of Japanese white male rabbits (weight: 1.8 to 2.5 kg) into a syringe containing 1/10 volume 3.8% sodium citrate. The blood thus obtained was subjected to a centrifugation at 200×g for 7 minutes at room temperature to obtain platelet rich plasma (PRP). Furthermore, the residue was subjected to a centrifugation at 2000×g for 10 minutes to obtain platelet poor plasma (PPP). The measurement was effected by diluting PRP with PPP to 300,000/mm^3. PRP and PPP were placed in a cuvette, and the measurement range of transmittance was adjusted to 0% in the case of PRP and to 100% in the case of PPP. Thereafter, a test sample drug dissolved in 100% dimethylsulfoxide (DMSO) was added to PRP (the final concentration of DMSO: 0.25%). After incubation was effected at 37° C. at 900 rpm for 2 minutes, an aggregating agent was added to record an aggregation curve. The anti-platelet aggregation effect of the test sample drug was expressed by a concentration (IC50 : μM) at which the aggregation of control sample was 50% inhibited. The aggregating agent ADP was used at the minimum concentration (5 to 10 μM) which caused the maximum aggregation. The measurement of platelet aggregation was carried out by using NBS HEMA TRACER 601.

guinea-pig trachea [3] = test: Bronchodilating effect in vitro, Method 1-1: relaxation of LTD4-contracted guinea-pig trachea strips; type: cell-based; details: Method 1-1, LTD4 (30 nM) contracted trachea, indomethacin 5 μM, read-out: EC50 (concentration to achieve 50% relaxation relative to relaxation by 1 mM aminophylline)
Experimental: as §1, §2
The composition of the modified Tyrode solution was as follows (mM):
The specimen was allowed to stand for 50-60 minutes, and was contracted with histamine dihydrochloride (100 μM). After the reaction became constant, it was washed and allowed to stand for 20-30 minutes. Indomethacin (5 μM) was added thereto, and after incubation for 30 minutes, the specimen was contracted by adding LTD4 (30 nM). After the reaction-became stable, a test sample drug was accumulatively administered. Finally, AP (1 mM) was added to achieve the maximum relaxation reaction. The result was expressed by relaxation percent relative to the relaxation by AP which was rated 100%, and a concentration to achieve 50% relaxation (EC50, μM) was measured. As a control drug, AP was used.

Question: Which EC50 (guinea-pig trachea [1]) does the source give for `COc1ccc(CNc2c(OC(C)C)n[nH]c(=O)c2Cl)cc1OCC(O)CN1CCN(Cc2ccc(NC=O)cc2)CC1` (centres unmarked) [Compound 77] here?
Answer: 57 nM

Question: What about the inhibition in vivo at 30 mg/kg [2] of the same compound?
Answer: 65%

Question: How did the EC50 (guinea-pig trachea [1]) turn out when `COc1ccc(CNc2cn[nH]c(=O)c2Cl)cc1OCC(=O)N1CCN(Cc2ccc(Cl)cc2)CC1` [Compound 51] was run?
Answer: 97 nM

Question: And the IC50 (platelet)?
Answer: 1100 nM

Question: And the EC50 (guinea-pig trachea [3]; Cavia porcellus)?
Answer: 6100 nM

Question: `COc1ccc(CNc2cn[nH]c(=O)c2Cl)cc1OCCCCCC(=O)N1CCN(Cc2ccccc2)CC1` [Compound 49] was tested. Which EC50 (guinea-pig trachea [3]; Cavia porcellus) did it give?
Answer: 1100 nM

Question: Which results are given for `CCOc1n[nH]c(=O)c(Cl)c1NCc1ccc(OC)c(OCC(=O)N2CCN(Cc3ccccc3)CC2)c1` [Compound 66]?
Answer: EC50 (guinea-pig trachea [1]): 67 nM; EC50 (guinea-pig trachea [3]; Cavia porcellus): 180 nM

Question: What does the source list for `CCOc1n[nH]c(=O)c(Cl)c1NCc1ccc(OC)c(OCC(=O)N2CCC(Cc3ccccc3)CC2)c1` [Compound 74]?
Answer: EC50 (guinea-pig trachea [1]): 46 nM; inhibition in vivo at 30 mg/kg [2]: 30%

Question: Which results are given for `COc1ccc(CNc2cn[nH]c(=O)c2Cl)cc1OCCCC(=O)N1CCN(Cc2ccccc2)CC1` [Compound 47]?
Answer: EC50 (guinea-pig trachea [1]): 540 nM; inhibition in vivo at 30 mg/kg [2]: 37%; IC50 (platelet): 5700 nM; EC50 (guinea-pig trachea [3]; Cavia porcellus): 770 nM

Question: Which EC50 (guinea-pig trachea [3]; Cavia porcellus) does the source give for `CCn1ncc(NCc2ccc(OC)c(OCCCN3CCN(Cc4ccc(F)cc4)CC3)c2)c(Cl)c1=O` [Compound 27] here?
Answer: 4000 nM

Question: Which IC50 (platelet) does the source give for `COc1ccc(CNc2cn[nH]c(=O)c2Br)cc1OCC(=O)N1CCN(Cc2ccccc2)CC1` [Compound 38] here?
Answer: 1200 nM

Question: `COc1ccc(CNc2cn[nH]c(=O)c2Cl)cc1OCCCN1CCN(Cc2ccccc2)CC1` [Compound 54] was tested. Which EC50 (guinea-pig trachea [1]) did it give?
Answer: 300 nM

Question: And the EC50 (guinea-pig trachea [3])?
Answer: 2400 nM

Question: Which results are given for `COc1ccc(CNc2cn[nH]c(=O)c2Br)cc1OCC(=O)N1CCN(Cc2ccc(F)cc2)CC1` [Compound 43]?
Answer: EC50 (guinea-pig trachea [1]): 280 nM; inhibition in vivo at 30 mg/kg [2]: 62%; IC50 (platelet): 2200 nM; EC50 (guinea-pig trachea [3]; Cavia porcellus): 400 nM

Question: How did the EC50 (guinea-pig trachea [1]) turn out when `COc1ccc(CNc2c(OC(C)C)n[nH]c(=O)c2Cl)cc1OCC(=O)N1CCN(Cc2ccc(NC=O)cc2)CC1` [Compound 79] was run?
Answer: 41 nM

Question: For `COc1ccc(CNc2cn[nH]c(=O)c2Cl)cc1OCC(=O)N1CCC(Cc2ccccc2)CC1` [Compound 62], which EC50 (guinea-pig trachea [1]) is on record?
Answer: 50 nM

Question: Which EC50 (guinea-pig trachea [1]) does the source give for `COc1ccc(CNc2c(OC(C)C)n[nH]c(=O)c2Cl)cc1OCC(=O)N1CCN(Cc2ccc(NC(C)=O)cc2)CC1` [Compound 80] here?
Answer: 39 nM

Question: And the inhibition in vivo at 30 mg/kg [2]?
Answer: 30%

Question: `CCOc1n[nH]c(=O)c(Cl)c1NCc1ccc(OC)c(OCC(=O)N2CCN(Cc3nc4ccccc4n3Cc3ccc(F)cc3)CC2)c1` [Compound 73] was tested. Which EC50 (guinea-pig trachea [1]) did it give?
Answer: 490 nM

Question: `COc1ccc(CNc2cn[nH]c(=O)c2Br)cc1OCCN1CCN(Cc2ccccc2)CC1` [Compound 5] was tested. Which IC50 (platelet) did it give?
Answer: 4100 nM

Question: What about the EC50 (guinea-pig trachea [3]; Cavia porcellus) of the same compound?
Answer: 420 nM

Question: How did the EC50 (guinea-pig trachea [1]) turn out when `COc1ccc(CNc2cn[nH]c(=O)c2Br)cc1OCCCC(=O)N1CCN(Cc2ccccc2)CC1` [Compound 48] was run?
Answer: 210 nM

Question: What about the IC50 (platelet) of the same compound?
Answer: 4000 nM

Question: What about the EC50 (guinea-pig trachea [3]; Cavia porcellus) of the same compound?
Answer: 950 nM

Question: What does the source list for `COc1ccc(CNc2c(OC(C)C)n[nH]c(=O)c2Cl)cc1OCC(=O)N1CCN(Cc2ccc(F)cc2)CC1` [Compound 76]?
Answer: EC50 (guinea-pig trachea [1]): 48 nM; EC50 (guinea-pig trachea [3]; Cavia porcellus): 690 nM

Question: Which EC50 (guinea-pig trachea [3]; Cavia porcellus) does the source give for `COc1ccc(CNc2cn[nH]c(=O)c2Br)cc1OCC(=O)N1CCN(Cc2cccnc2)CC1` [Compound 34] here?
Answer: 3800 nM
